Series [1] has as its target T1, pteridine reductase 1 (TbPTR1) (Trypanosoma brucei, UniProt O76290).
T1 construct: gene PTR1; N-terminal hexahistidine-tagged protein
T1 sequence (O76290 1-268): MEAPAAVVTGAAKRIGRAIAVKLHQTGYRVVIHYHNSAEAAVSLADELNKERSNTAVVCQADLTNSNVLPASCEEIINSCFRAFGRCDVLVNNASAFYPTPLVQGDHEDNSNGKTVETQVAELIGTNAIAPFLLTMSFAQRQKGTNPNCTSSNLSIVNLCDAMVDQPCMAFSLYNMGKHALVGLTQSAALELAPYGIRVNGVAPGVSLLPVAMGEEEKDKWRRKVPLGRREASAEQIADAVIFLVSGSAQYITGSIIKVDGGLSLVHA
Description: cocrystal structure of ternary complex; cyt c-coupled enzyme inhibition assay. It counts as biochemical.

Series [2] deals with T1, pteridine reductase 1 (TbPTR1). Description: cocrystal structure of ternary complex with DDD00066641. The series is classed as binding.
Substrate in series [3]: C[C@H](O)[C@H](O)C1=Nc2c(nc(N)[nH]c2=O)NC1
Description: HPLC enzyme kinetics (Km app), with substrate inhibition. It counts as biochemical, Trypanosoma brucei. To be noted: NADPH.

Substrate in series [4]: NC(=O)C1=CN([C@@H]2O[C@H](COP(=O)(O)OP(=O)(O)OC[C@H]3O[C@@H](n4cnc5c(N)ncnc54)[C@H](OP(=O)(O)O)[C@@H]3O)[C@@H](O)[C@H]2O)C=CC1
Description: HPLC enzyme kinetics (Km app, data not shown). The series is classed as biochemical, Trypanosoma brucei. To be noted: varied: cofactor.

Experimental findings from paper PMC2789237 (Analytical Biochemistry, 2010) are described below.

Take `Cc1ccc(-c2ccc3nc(N)nc(N)c3c2)cc1` [DDD00066641, 6-p-tolylquinazoline-2,4-diamine]: the affinity in series [1] corresponds to a Ki of 3 ± 0.8 nM.

Regarding `NC(=O)c1ccc[n+]([C@@H]2O[C@H](COP(=O)(O)OP(=O)(O)OC[C@H]3O[C@@H](n4cnc5c(N)ncnc54)[C@H](OP(=O)(O)O)[C@@H]3O)[C@@H](O)[C@H]2O)c1` [NADP+], the “cocrystal structure of ternary complex with DDD00066641” value in series [2] is “The structure of the ternary complex of TbPTR1 with this ligand and the cofactor NADP^+ was obtained by cocrystallization”.

B1: pteridine reductase 1 (TbPTR1) (Trypanosoma brucei brucei) (protein)
chain: MEAPAAVVTGAAKRIGRAIAVKLHQTGYRVVIHYHNSAEAAVSLADELNKERSNTAVVCQADLTNSNVLPASCEEIINSCFRAFGRCDVLVNNASAFYPTPLVQGDHEDNSNGKTVETQVAELIGTNAIAPFLLTMSFAQRQKGTNPNCTSSNLSIVNLCDAMVDQPCMAFSLYNMGKHALVGLTQSAALELAPYGIRVNGVAPGVSLLPVAMGEEEKDKWRRKVPLGRREASAEQIADAVIFLVSGSAQYITGSIIKVDGGLSLVHA
notes: N-terminal hexahistidine-tagged protein
Turning to B1, the Km was found to be 0.025 ± 0.0067 µM in series [3] and 1.6 ± 0.1 µM in series [4].

Usually Ki stands for the equilibrium dissociation constant of an inhibitor or competing ligand from its target. Read a low Ki as tighter binding. The Km is the substrate concentration at which the rate is half of its maximum.
